Reference: patent US20230072421A1, “TARGETED RADIOPHARMACEUTICALS FOR THE DIAGNOSIS AND TREATMENT OF PROSTATE CANCER” (Bayer AS, priority 2019, published 2023)

Assays:
[1] = system: VCaP cells; assay: Cell proliferation assay (CellTiter-Glo, 5-day exposure), VCaP; assay type: cell-based; settings: 4000 cells/well, Th-227 labelled at 375 kBq/nmol, mean of 1 to 6 experiments
In short: (§1)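 Prostate cancer cells (VCaP 4000/well; 22Rv1, C4-2, LNCaP 1000/well), Th-227-labelled PSMA ligands, 5-day exposure; viability by CTG at start and end.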

[2] = system: C4-2 cells; assay: Cell proliferation assay (CellTiter-Glo, 5-day exposure), C4-2; assay type: cell-based; settings: C4-2, 1000 cells/well, Th-227 labelled at 375 kBq/nmol, mean of 1 to 6 experiments
In short: as §1

[3] = system: 22Rv1 cells; assay: Cell proliferation assay (CellTiter-Glo, 5-day exposure), 22Rv1; assay type: cell-based; settings: 22Rv1, 1000 cells/well, Th-227 labelled at 375 kBq/nmol, mean of 1 to 6 experiments
In short: as §1

[4] = system: LNCaP cells; assay: Cell proliferation assay (CellTiter-Glo, 5-day exposure), LNCaP; assay type: cell-based, human
Procedure: Inhibition of cell proliferation of Thorium-227 labeled PMSA SMOL ligands was tested different prostate cancer cell lines, namely 22Rv1, VCaP, C4-2 (all from ATCC, Manassas, Va., USA) and LNCaP (DMSZ, Braunschweig). Cells were seeded using the following conditions in 384 well plates (Corning) in 30 μl of growth media at 4000 cells/well for VCaP cells and 1000 cells/well for 22Rv1, C4-2 and LNCaP cells.
Cells were cultivated an incubator at 37° C. and 5% C02 over night. On the following days cells were treated in triplicates with serial dilutions of PSMA-SMOLs labeled with Th-227 at a specific activity of 375 kBq/nmol (RCP>70% as assessed by iTLC analysis; compounds where RCP was between 50-70% in individual experiments are marked with an * in the table) using a D300e Digital Dispenser (Tecan). In sister plates cell viability at treatment start (d=0) was determined using CellTiter-Glo® assay (CTG, Promega, Madison, Wis., USA), by adding 30 μl per well CTG solution, incubation for 10 min and reading of Luminescence in a PheraStarFSX instrument (BMG Labtech). After a 5-day exposure in the presenced of test compounds, cell viability of treated or untreated control cells was determined again using CellTiter-Glo® assay (Promega, Madison, Wis., USA). […] The DRC software is a Biobook Spreadsheet that was developed by Bayer AG and Bayer Business Services on the IDBS E-Workbook Suite platform (IDBS: ID Business Solutions Ltd., Guildford, UK).

[5] = system: LNCaP human prostate cancer cells; assay: LNCaP xenograft efficacy study (T/C tumor area); assay type: in vivo, SCID mice
In short: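 SCID mice with testosterone pellet bearing s.c. flank LNCaP xenografts (5×10^6 cells in Matrigel) were treated i.v. with a defined radioactive dose once tumors reached 35-50 mm^2 (n=10/group). Tumor area (caliper, longest diameter × perpendicular) measured 2-3× weekly; T/C ratio calculated from tumor areas when vehicle group closed.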

[6] = target: T1, PSMA-expressing LNCaP cells (Homo sapiens, UniProt Q04609); assay: Internalization assay (membrane bound and internalized Th-227); assay type: cell-based
T1 construct: PSMA-expressing LNCaP cells; endogenous in cells; host or cells: LNCaP
Procedure: For internalization assays 24 well plates (#3526, Corning) were coated with 200 μl Poly-L-Lysine (0.1 mg/ml, #3438-100-01, Fa. Cultrex) per well for 2 h at 37° C. […] Cells were incubated at 37° C. and 5% CO2 over night. On the following day 400 μl of the media were removed and a total of 200 μl growth medium added supplemented with PSMA-SMOLs labeled with Th-227 at 375 kBq/nmol in triplicates. Radiochemical purity of the labeling was analyzed by instant thin layer chromatography and found to be above 70% for all compounds used. The final concentration of radiolabeled SMOLs was in the test wells was 10 nM. Cells were incubated for 30 min or 2 h. After the incubation time supernatants were taken off and cells washed with PBS. Thereafter cells were washed twice with 0.2 ml 50 mM Glycine-HCl buffer (#55097, Sigma Aldrich) and once with PBS and the washing solutions combined in counting vials (#TK75-018, Fa. Corning) and subjected to gamma counting (1470 Wizard automatic gamma counter, Wallac). The resulting counts were attributed to membrane bound radioactivity. Cells were then lysed with 500 μl 0.3N NaOH (#181691.1211, Fa. PanReac AppliChem ITW Reagents) followed by another wash with 500 μl PBS. The NaOH lysate as well as the final wash were combined in vials and subjected to gamma counting as described above. Measured radioactivity was attributed to internalized fraction. Results were calculated as fmol of Th-227 per/10^cells in the membrane bound and internalized fractions from triplicate values.

[7] = Biodistribution study in LNCaP tumor-bearing mice (Th227 counted in organs); assay type: in vivo, SCID mice; settings: 500 kBq/kg; for Th-227 in Blood / Th-227 in Femur bone / Th-227 in Kidneys / Th-227 in Liver / Th-227 in Spleen / Th-227 in Tumor / Th-227 in salivary glands: study b3004
In short: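 Th227 in excised, weighed organs was counted with a Germanium detector at predetermined time points (n=3 mice each). This followed one i.v. injection of radiolabelled compound into testosterone-supplemented SCID mice carrying LNCaP xenografts in Matrigel, dosed once tumors reached ~50 mm^2.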

[8] = 10 nM radiolabeled compound, Th-227 at 375 kBq/nmol, 30 min incubation, triplicates
[9] = 10 nM radiolabeled compound, Th-227 at 375 kBq/nmol, 2 h incubation, triplicates
[10] = comparison of % injected dose per gram tissue

T1 sequence (Q04609 whole entry): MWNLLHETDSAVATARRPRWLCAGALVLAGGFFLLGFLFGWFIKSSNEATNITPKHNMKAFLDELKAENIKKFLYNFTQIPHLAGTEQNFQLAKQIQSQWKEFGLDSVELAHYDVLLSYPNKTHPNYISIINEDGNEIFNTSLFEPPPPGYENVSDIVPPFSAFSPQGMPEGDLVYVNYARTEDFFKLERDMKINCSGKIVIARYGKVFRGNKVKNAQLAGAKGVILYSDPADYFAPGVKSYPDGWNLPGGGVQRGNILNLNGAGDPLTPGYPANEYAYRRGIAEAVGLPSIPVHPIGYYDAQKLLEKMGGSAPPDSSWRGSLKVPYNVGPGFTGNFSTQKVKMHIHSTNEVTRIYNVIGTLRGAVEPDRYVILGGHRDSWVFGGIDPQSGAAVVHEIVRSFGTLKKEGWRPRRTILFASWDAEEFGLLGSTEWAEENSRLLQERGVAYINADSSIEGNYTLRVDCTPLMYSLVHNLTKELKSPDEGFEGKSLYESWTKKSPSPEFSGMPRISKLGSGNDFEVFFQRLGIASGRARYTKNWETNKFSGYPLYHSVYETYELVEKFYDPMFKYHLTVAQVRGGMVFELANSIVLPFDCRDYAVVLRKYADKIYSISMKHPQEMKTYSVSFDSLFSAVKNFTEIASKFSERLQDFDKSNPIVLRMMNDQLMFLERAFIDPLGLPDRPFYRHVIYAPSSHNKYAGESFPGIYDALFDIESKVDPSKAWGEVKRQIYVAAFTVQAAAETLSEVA

Structure (SMILES): CC1=CC2=C3[O][227Th-4]45678([O]C9=C(C=C(C)N(CC(=O)O)C9=[O+]4)C(=O)NCCN(CCCN(CCNC(=O)C4=C([O]5)C(=[O+]6)N(CC(=O)O)C(C)=C4)CCNC(=O)C4=C([O]7)C(=[O+]8)N(CC(=O)NC[C@H]5CC[C@H](C(=O)N[C@@H](Cc6ccc7ccccc7n6)C(=O)NCCCC[C@H](NC(=O)N[C@@H](CCC(=O)O)C(=O)O)C(=O)O)CC5)C(C)=C4)CCNC2=O)[O+]=C3N1CC(=O)O [Example 17-C monomer-227Th]
- Proliferation assay on cancer cell lines by TTCs Default Pivot #3 IC50 [kBq/mL] VCap 4000cells 375kBq/nmol (mean) [1]: 1.48 kBq/mL
- Proliferation assay on cancer cell lines by TTCs Default Pivot #3 IC50 [kBq/mL] C4-2 1000cells 375kBq/nmol (mean) [2]: 0.5 kBq/mL
- Proliferation assay on cancer cell lines by TTCs Default Pivot #3 IC50 [kBq/mL] 22Rv1 1000cells 375kBq/nmol (mean) [3]: 0.86 kBq/mL
- Proliferation assay on cancer cell lines by TTCs Default Pivot #3 IC50 [kBq/mL] LnCap 1000cells 375kBq/nmol (mean) ([4]; LNCaP, 1000 cells/well, Th-227 labelled at 375 kBq/nmol, 5-day exposure, mean of 1 to 6 experiments): 0.04 kBq/mL
- T/Carea ([5]; Example V, day 27 after start of therapy, once 750 kBq/kg): 0.36

Structure (SMILES): CC1=CC2=C3[O][227Th-5]45678([O]C9=C(C=C(C)N(CC(=O)O)C9=[O+]4)C(=O)NCCN(CCCN(CCNC(=O)C4=C([O]5)C(=[O+]6)N(CC(=O)O)C(C)=C4)CCNC(=O)C4=C([OH+]7)C(=[O+]8)N(CC(=O)NC[C@H]5CC[C@H](C(=O)N[C@@H](Cc6ccc7ccccc7c6)C(=O)NCCCC[C@H](NC(=O)N[C@@H](CCC(=O)O)C(=O)O)C(=O)O)CC5)C(C)=C4)CCNC2=O)[O+]=C3N1CC(=O)O [1-C monomer-227Th]
- antiproliferative activity on LnCap cells (in words) ([4]; compared to 1-PEG-227Th and 46-E 227Th): superior antiproliferative activity
- Internalized in LNCaP fmol/10^6 cells 30 min [6, 8]: 84 fmol/10^6 cells
- Membrane bound in LNCaP fmol/10^6 cells 30 min [6, 8]: 105 fmol/10^6 cells
- Internalized in LNCaP fmol/10^6 cells 2 h [6, 9]: 291 fmol/10^6 cells
- Membrane bound in LNCaP fmol/10^6 cells 2 h [6, 9]: 260 fmol/10^6 cells
- intracellular radioactivity on PSMA-expressing LNCaP cells (in words) ([6]; after 30 min and 2 h, compared to 1-B-227Th bearing a DOTA chelator): increased intracellular radioactivity
- Tumor response ([5]; Example II, 750 kBq/kg weekly for 5 weeks, day 120): full response
- Accumulation in the tumor (in words) [7, 10]: much higher accumulation in the tumor
- Background in blood, liver and spleen (in words) [7, 10]: lower background compared to 1-F-227Th
- Th-227 in Blood ([7]; 1 h): 0.63 % ID Th-227/g organ
- Th-227 in Femur bone ([7]; 1 h): 0.96 % ID Th-227/g organ
- Th-227 in Kidneys ([7]; 1 h): 119.59 % ID Th-227/g organ
- Th-227 in Liver ([7]; 1 h): 0.69 % ID Th-227/g organ
- Th-227 in Spleen ([7]; 1 h): 4.69 % ID Th-227/g organ
- Th-227 in Tumor ([7]; 1 h): 31.73 % ID Th-227/g organ
- Th-227 in salivary glands ([7]; 1 h): 9.62 % ID Th-227/g organ
- Th-227 in Blood ([7]; 24 h): 0.03 % ID Th-227/g organ
- Th-227 in Femur bone ([7]; 24 h): 1.08 % ID Th-227/g organ
- Th-227 in Kidneys ([7]; 24 h): 72.59 % ID Th-227/g organ
- Th-227 in Liver ([7]; 24 h): 0.35 % ID Th-227/g organ
- Th-227 in Spleen ([7]; 24 h): 1.79 % ID Th-227/g organ
- Th-227 in Tumor ([7]; 24 h): 16.36 % ID Th-227/g organ
- Th-227 in salivary glands ([7]; 24 h): 1.41 % ID Th-227/g organ
- Th-227 in Blood ([7]; 72 h): 0.01 % ID Th-227/g organ
- Th-227 in Femur bone ([7]; 72 h): 1.12 % ID Th-227/g organ
- Th-227 in Kidneys ([7]; 72 h): 24.80 % ID Th-227/g organ
- Th-227 in Liver ([7]; 72 h): 0.36 % ID Th-227/g organ
- Th-227 in Spleen ([7]; 72 h): 0.76 % ID Th-227/g organ
- Th-227 in Tumor ([7]; 72 h): 9.02 % ID Th-227/g organ
- Th-227 in salivary glands ([7]; 72 h): 1.13 % ID Th-227/g organ
- Th-227 in Blood ([7]; 168 h): 0.00 % ID Th-227/g organ
- Th-227 in Femur bone ([7]; 168 h): 1.28 % ID Th-227/g organ
- Th-227 in Kidneys ([7]; 168 h): 12.66. % ID Th-227/g organ
- Th-227 in Liver ([7]; 168 h): 0.33 % ID Th-227/g organ
- Th-227 in Spleen ([7]; 168 h): 0.78 % ID Th-227/g organ
- Th-227 in Tumor ([7]; 168 h): 6.20 % ID Th-227/g organ
- Th-227 in salivary glands ([7]; 168 h): 1.23 % ID Th-227/g organ
- Th-227 in Blood ([7]; 336 h): 0.00 % ID Th-227/g organ
- Th-227 in Femur bone ([7]; 336 h): 1.13 % ID Th-227/g organ
- Th-227 in Kidneys ([7]; 336 h): 3.41 % ID Th-227/g organ
- Th-227 in Liver ([7]; 336 h): 0.31 % ID Th-227/g organ
- Th-227 in Spleen ([7]; 336 h): 0.70 % ID Th-227/g organ
- Th-227 in Tumor ([7]; 336 h): 2.78 % ID Th-227/g organ
- Th-227 in salivary glands ([7]; 336 h): 1.29 % ID Th-227/g organ
